In patent publication US9463188B2, “Osteopontin production inhibitor containing dictyopyrone derivative or dihydrodictyopyrone derivative as active ingredient” (TOHOKU UNIVERSITY, priority 2013, dated 2016):

Test system: OPN promoter in A549/OPNluc cells
Test: Influence of mevalonic acid on suppression of luciferase activity under control of OPN promoter
Format: cell-based, human
Experimental: In order to determine whether the OPN production inhibitory effect of a dictyopyrone derivative or a dihydrodictyopyrone derivative contained as an active ingredient in the OPN production inhibitor according to the present invention is based on the same mechanism of action as a well-known statin-based drug for treatment of hypercholesteremia, simvastatin or the compound 3 was added to a culture liquid containing A549/OPNluc cells to determine its effect on gene expression under control of OPN promoter and to observe whether or not the effect was maintained even in the presence of mevalonic acid. […]
The solution in each well was mixed with a vortex mixer, and then the 96-well plate was incubated in a CO2 incubator (at 37° C. and 5% CO2) for 48±4 hours. […] After 30 min, 90 min, and 120 min, absorbance values (450 nm) were measured using a microplate reader (Bio-Rad; Benchmark or Thermo Scientific; Varioskan Flash).
The absorbance values were input into an Excel file, and the absorbance values of all the samples of each test group were divided by the average absorbance value of Control to determine the ratio of the absorbance value of each sample to the absorbance value of Control (Ratio to Control). Absorbance value of each sample÷absorbance value of Control=Ratio to Control […]

SMILES: CCCCCCCCCCCC(=O)[C@H]1C(=O)O[C@@H](C)C[C@@H]1C [Chemical formula 3]
- luciferase activity under control of OPN promoter after addition of MVA (compound 3 25 μM + MVA (100 μM or 1 mM)): not recovered
- luciferase activity under control of OPN promoter (compound 3 25 μM, no MVA, corrected by WST Ratio to Control): suppression of luciferase activity
